Experiments:
HbS = biological target: T1, HbS (Homo sapiens, UniProt P68871+P69905, E7V); experiment: 'R'-'T' assay (conversion of oxy HbS to deoxy HbS under deoxygenating conditions); type: biochemical; conditions: 50% inhibition of HbS 'R'-'T' conversion; 3 uM HbS, <1% O2
T1 construct: HbS was obtained from the blood of homozygous S/S patients; from tissue; host or cells: red blood cells of homozygous S/S patients
Procedure, shortened: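 Oxy HbS diluted to 3 µM in 100 mM potassium phosphate pH 7.4, incubated 1 h at room temperature with compound, then held under <1% O2 for 2 h. Conversion followed by background-corrected 415/430 nm absorbance ratio at 0, 90 and 120 min; percent effect normalized to tucaresol, IC50 from concentration series.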

Hb in human whole blood = biological target: T2, Hb in human whole blood (Homo sapiens, UniProt P68871+P69905); experiment: Whole blood oxygen affinity assay (Hemox analyzer), human blood; conditions: 1 mM compound, 1 hour at 25 C, relative to DMSO
T2 construct: measured in human, dog, and mouse whole blood; from tissue; host or cells: human whole blood
Description: Whole Blood Oxygen Affinity Assay
Oxygen affinity is a marker of the ability of Hb to bind and release oxygen in solution. It can be determined in whole blood by measuring the percentage of oxygenated and deoxygenated Hb present at a given oxygen concentration. Oxygen affinity is expressed as the p50, the partial pressure of oxygen at which 50% of the Hb in solution has oxygen bound, or the p20, the partial pressure of oxygen at which 20% of the Hb in solution has oxygen bound.
To determine the effects of compounds of the invention on oxygen affinity the p50 and p20 were measured in human, dog, and mouse whole blood using a Hemeox Analyzer (TCS Scientific). The blood was spiked with a compound of the invention to a concentration of 1 mM and incubated for 1 hour at 25 C with constant rotation. A concentration of 1 mM of compound was selected to approximate 20% hemoglobin occupancy in whole blood. Controls with the same concentration of DMSO, but no compound were incubated in the same way at the same time. Following incubation, samples were immediately assayed for oxygen affinity using the Hemox analyzer. Fifty μL of blood sample was diluted into 5 mL of hemox buffer (TCS Scientific), which had been pre-incubated to 37 C. Following dilution, samples were loaded into the analysis chamber, and fully oxygenated using compressed air. Once samples had reached an pO2 of >150 torr, the measurement was initiated by switching to N2, and the percent oxyhemoglobin as a function of partial pressure was recorded. The p20 and p50 of each sample were recorded from the instrument readout. Data are reported as the percent (%) change relative to DMSO according to the following calculations: […]

[1] = biological target: T3, purified sickle cell hemoglobin (HbS) (Homo sapiens, UniProt P68871+P69905, E7V); experiment: Binding affinity to purified HbS by Surface Plasmon Resonance (SPR); conditions: crosslinked biotinylated HbS, 1:1 binding model
T3 construct: HbS was obtained from the blood of homozygous S/S patients; from tissue; host or cells: red blood cells of homozygous S/S patients
Procedure, shortened: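 Patient-derived HbS, purified and crosslinked between beta subunits (Lys82-Lys82), biotinylated and captured on streptavidin sensor at 4000–5000 RU. Running buffer 100 mM potassium phosphate pH 7.5, 1 mM EDTA, 0.1 mg/mL BSA, 1% DMSO; 2 min association, ≥5 min dissociation, ≥4 concentrations; Kd from 1:1 model fit.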

[2] = Single dose study in sickle Townes mice: exposure in whole blood; type: in vivo; conditions: male, Townes (sickle cell disease model), mouse, SCD mice, n=3
Protocol: In Vivo Studies Mouse Model
The effect of the compounds of the invention was evaluated in-male sickle Townes mice in a single dose study. Compounds of the invention were administered in amounts set out in Tables 7, 8 and 9 that follow by oral gavage. Control mice received vehicle. Blood (50 μL) was drawn at 0.5 h, 1 h, 4 h, 7 h, 10 h, and 24 h. To measure exposure in whole blood, 20 μL sample was used. Blood drawn at 0.5 h was also evaluated for cell sickling.

Townes SCD mice = experiment: Chronic dosing study (BID, 15 days) in Townes SCD mice; type: in vivo, mouse; conditions: 100 mg/kg BID for 15 days, n=4-5, Townes SCD mice, vs vehicle
Protocol: Following 15 days of dosing, blood samples were collected from all animals to run in the Hemeox analyzer to generate oxygen affinity curves, complete blood analysis was performed using Idexx hematology Analyzer, and cell sickling assessed as described before. Soluble Vascular Adhesion Molecule 1 levels (sVCAM1) were assessed by Enzyme linked immunosorbent assay (ELISA) from R&D systems. Results are presented below in Tables 7, 8 and 9.

**Q.** What does the source list for `C[C@H](Oc1cc2cc(F)ccc2nc1N)c1cc(C(=O)O)ccc1-n1cccn1` [Example 4, 3-{(1S)-1-[(2-amino-6-fluoroquinolin-3-yl)oxy]ethyl}-4-(1H-pyrazol-1-yl)benzoic Acid]?
**A.** IC50 (HbS): 4920 nM; Reduction in p20 (%) Human (Hb in human whole blood): 40 ± 4%; Reduction in p50 (%) Human (Hb in human whole blood): 7 ± 3%; Kd [1]: 100 nM

**Q.** With `C[C@H](Oc1cc2cc(C(N)=O)ccc2nc1N)c1ncc(F)cc1-n1cccn1` [Example 27, 2-amino-3-{(1S)-1-[5-fluoro-3-(1H-pyrazol-1-yl)pyridin-2-yl]ethoxy}quinoline-6-carboxamide] as the compound, how does the concentration at 0.5 h ([2]; single dose 5 mg/kg oral gavage) read?
**A.** 7.4 µM

**Q.** What about the concentration at 0.5 h ([2]; single dose 50 mg/kg oral gavage) of the same compound?
**A.** 208 µM

**Q.** And the “Hb, Change (increase)” value (Townes SCD mice)?
**A.** 54.4 ± 8.7% increase

**Q.** And the “Hematocrit, Change (increase)” value (Townes SCD mice)?
**A.** 42.0 ± 12.7% increase

**Q.** And the “RBC sickling, Change (decrease)” value (Townes SCD mice)?
**A.** 19.2 ± 5.4% decrease

**Q.** And the “RBCs, Change (increase)” value (Townes SCD mice)?
**A.** 51.9 ± 8.3% increase

**Q.** What about the “Reticulocytes, Change (decrease)” value (Townes SCD mice) of the same compound?
**A.** 18.4 ± 5.5% decrease

**Q.** What about the “p20, Change (decrease)” value (Townes SCD mice) of the same compound?
**A.** 10.8 ± 3.8% decrease

**Q.** And the “p50, Change (decrease)” value (Townes SCD mice)?
**A.** 7.89 ± 3.36% decrease

**Q.** And the IC50 (HbS)?
**A.** 5360 nM

**Q.** And the “Reduction in p20 (%) Human” value (Hb in human whole blood)?
**A.** 70 ± 4%

**Q.** What about the “Reduction in p50 (%) Human” value (Hb in human whole blood) of the same compound?
**A.** 26 ± 1%

**Q.** What about the Kd [1] of the same compound?
**A.** 183 nM

**Q.** Which IC50 (HbS) does the source give for `C[C@H](Oc1cc2cc(C(N)=O)ccc2nc1N)c1cc2[nH]ncc2cc1-n1cccn1` [Example 61, 2-amino-3-{(1S)-1-[5-(1H-pyrazol-1-yl)-1H-indazol-6-yl]ethoxy}quinoline-6-carboxamide] here?
**A.** 5450 nM

**Q.** What about the “Reduction in p20 (%) Human” value (Hb in human whole blood) of the same compound?
**A.** 14 ± 8%

**Q.** And the “Reduction in p50 (%) Human” value (Hb in human whole blood)?
**A.** 1 ± 6%

**Q.** And the Kd [1]?
**A.** 36 nM

**Q.** With `Cc1cc2nc(N)c(O[C@@H](C)c3nc4[nH]ncc4cc3-n3cccn3)cc2cn1` [Example 75, 7-methyl-3-{(1S)-1-[5-(1H-pyrazol-1-yl)-1H-pyrazolo[3,4-b]pyridin-6-yl]ethoxy}-1,6-naphthyridin-2-amine] as the compound, how does the IC50 (HbS) read?
**A.** 3760 nM

**Q.** And the Kd [1]?
**A.** 36 nM

**Q.** What does the source list for `C[C@H](Oc1cc2cc(C(N)=O)c(F)cc2nc1N)c1nc2[nH]ncc2cc1-n1cccn1` [Example 76, 2-amino-7-fluoro-3-{(1S)-1-[5-(1H-pyrazol-1-yl)-1H-pyrazolo[3,4-b]pyridin-6-yl]ethoxy}quinoline-6-carboxamide]?
**A.** IC50 (HbS): 28900 nM; Kd [1]: 14 nM

**Q.** Which IC50 (HbS) does the source give for `Cc1cc2nc(N)c(O[C@@H](C)c3nc4c(cnn4CCO)cc3-n3cccn3)cc2cn1` [Example 77, 2-[6-{(1S)-1-[(2-amino-7-methyl-1,6-naphthyridin-3-yl)oxy]ethyl}-5-(1H-pyrazol-1-yl)-1H-pyrazolo[3,4-b]pyridin-1-yl]ethanol] here?
**A.** 6300 nM

**Q.** What about the Kd [1] of the same compound?
**A.** 195 nM
